We go through 18 compounds from patent publication US9296734B2 (AMGEN INC., priority 2013, dated 2016).

Broadly, the IC50 is the concentration needed to halve the response being measured.

Test [1] relates to Aβ40 in conditioned medium of cells stably expressing Amyloid Precursor Protein (APP). Description: In vitro BACE cell-based assay (Aβ40 sandwich ELISA). Conditions: Homo sapiens. As to the method:
In Vitro BACE Cell-Based Assay
The cell-based assay measures inhibition or reduction of Aβ40 in conditioned medium of test compound treated cells expressing amyloid precursor protein.
Cells stably expressing Amyloid Precursor Protein (APP) were plated at a density of 40K cells/well in 96 well plates (Costar). The cells were cultivated for 24 hours at 37° C. and 5% CO2 in DMEM supplemented with 10% FBS. The test compounds were then added to cells in 10-point dose response concentrations with the starting concentration being either 100 μM or 10 μM. The compounds were diluted from stock solutions in DMSO and the final DMSO concentration of the test compounds on cells was 0.1%. After 24 h of incubation with the test compounds the supernatant conditioned media was collected and the Aβ 40 levels were determined using a sandwich ELISA. The IC50 of the compound was calculated from the percent of control or percent inhibition of Aβ 40 as a function of the concentration of the test compound.
The sandwich ELISA to detect Aβ 40 was performed in 96 well microtiter plates, which were pre-treated with goat anti-rabbit IgG (Pierce). The capture and detecting antibody pair that were used to detect Aβ 40 from cell supernatants were affinity purified pAb40 (Biosource) and biotinylated 6E10 (Signet Labs Inc.), respectively. The optimal concentration for the pAb40 antibody was 3 μg/ml in Superblock/TBS (Pierce) that was supplemented with 0.05% Tween 20 (Sigma).
Cellular supernatants were incubated with the capture antibody for 3 h at 4° C., followed by 3 wash steps in TBS-tween (0.05%). The detecting antibody incubation was for 2 h at 4° C., again followed by the wash steps as described previously. The final readout of the ELISA is Time-Resolved Fluorescence (counts per minute) using Delfia reagents Streptavidin-Europium and Enhancement solutions (Perkin Elmer) and the Victor 2 multilabel counter (Perkin Elmer).
Background: ELISA stands for enzyme-linked immunosorbent assay.

Test [2] deals with Beta Secretase enzyme (BACE) (Homo sapiens (Human), UniProt P56817). Description: In vitro enzymatic BACE FRET assay. Conditions: read-out: BACE 1 FRET assay IC50. Type of test: biochemical. As to the method:
In Vitro Enzymatic BACE FRET (Fluorescence Resonance Energy Transfer) Assay (Enzyme Assay Data in the Example Table I)
The assay buffer used in this screen is 0.05 M acetate, pH 4.2, 10% DMSO final, 100 uM genapol (which is a nonionic detergent, below its Critical Micelle Concentration). […] This assay is effectively started by the addition of FRET substrate (50 nM) and the combination is incubated for one hour. The FRET assay is terminated with by addition of Tris buffer, which raises the pH to neutrality, and the fluorescence is determined. The FRET substrate is a peptide with commercially available fluorophore and quencher, on opposite sides of the BACE cleavage site.

The next test concerns the target Cathepsin D (Cat D) (Homo sapiens (Human), UniProt P07339). Description: In vitro enzymatic Cathepsin D (Cat D) FRET assay. Type of test: biochemical. Conditions: read-out: CatD IC50. The method in brief:
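CHO-expressed recombinant Cat D cleaves a fluorophore/quencher FRET peptide (20 nM) in 0.05 M citrate pH 3.5, 5 mM CHAPS, 10% DMSO final, over 1 h. Tris addition neutralizes pH to stop the reaction; fluorescence read at excitation 500 nm, emission 580 nm.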

[3] abbreviates: HEK293, average IC50, HEK cells, read-out: HEK cell assay IC50.
Setting [4] is: HEK293, average IC50, HEK cell assay, read-out: HEK cell assay IC50.
The mark [5] stands for this setting: average IC50, BACE enzyme assay.
Setting [6] is: average IC50, cathepsin D enzyme assay.

Structures are written as SMILES. Read-outs that look alike come from different tables or passages of the source.

Chain of Cathepsin D (Cat D) (P07339 65-412, species assumed): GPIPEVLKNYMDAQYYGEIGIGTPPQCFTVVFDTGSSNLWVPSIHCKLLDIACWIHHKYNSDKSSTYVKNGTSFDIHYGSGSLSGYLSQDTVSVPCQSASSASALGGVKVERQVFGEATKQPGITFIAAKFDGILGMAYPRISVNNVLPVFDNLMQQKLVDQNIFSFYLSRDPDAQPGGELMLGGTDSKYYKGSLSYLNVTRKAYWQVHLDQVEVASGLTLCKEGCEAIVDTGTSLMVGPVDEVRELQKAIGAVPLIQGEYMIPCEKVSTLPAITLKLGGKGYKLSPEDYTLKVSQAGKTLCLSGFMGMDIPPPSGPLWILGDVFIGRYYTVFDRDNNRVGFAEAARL
Chain of Beta Secretase enzyme (BACE) (P56817 46-501): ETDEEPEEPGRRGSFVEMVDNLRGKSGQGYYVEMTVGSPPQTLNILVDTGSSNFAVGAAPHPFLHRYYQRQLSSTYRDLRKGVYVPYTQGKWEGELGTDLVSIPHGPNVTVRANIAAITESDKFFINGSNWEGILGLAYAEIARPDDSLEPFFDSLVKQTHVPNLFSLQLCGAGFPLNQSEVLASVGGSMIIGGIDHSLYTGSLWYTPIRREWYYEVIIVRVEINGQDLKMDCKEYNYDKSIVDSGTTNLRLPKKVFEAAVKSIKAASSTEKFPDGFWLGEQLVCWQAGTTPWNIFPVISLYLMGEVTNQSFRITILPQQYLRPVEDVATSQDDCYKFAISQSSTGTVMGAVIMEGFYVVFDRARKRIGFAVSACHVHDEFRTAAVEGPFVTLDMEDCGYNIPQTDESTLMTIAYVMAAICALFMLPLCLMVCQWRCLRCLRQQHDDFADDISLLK

In the case of `COc1cc(Cl)cnc1C(=O)Nc1ccc(F)c([C@]2(CF)C[C@@H](C(F)(F)F)OC(N)=N2)c1` [Example 47], the IC50 in test [1] (setting [3]) is 0.0679 µM; in test [2] (average IC50) it was 0.0564 µM; on Cathepsin D (Cat D) (average IC50), > 400 µM.
For `COc1cc(C#N)cnc1C(=O)Nc1ccc(F)c([C@]2(CF)C[C@@H](C(F)(F)F)OC(N)=N2)c1` [Example 48, N-(3-((4S,6S)-2-amino-4-(fluoromethyl)-6-(trifluoromethyl)-5,6-dihydro-4H-1,3-oxazin-4-yl)-4-fluorophenyl)-5-cyano-3-methoxypicolinamide], in that order: 0.0322 µM, 0.0418 µM and > 400 µM.
With `NC1=N[C@](CF)(c2cc(NC(=O)c3ccc(C#CC4CC4)cn3)ccc2F)C[C@@H](C(F)(F)F)O1` [Example 53, N-(3-((4S,6S)-2-amino-4-(fluoromethyl)-6-(trifluoromethyl)-5,6-dihydro-4H-1,3-oxazin-4-yl)-4-fluorophenyl)-5-(cyclopropylethynyl)picolinamid], the IC50 was determined as 0.196 µM in test [1] (setting [4]), 0.023 µM in test [2] (setting [5]) and 2990 µM on Cathepsin D (Cat D) (setting [6]).
For `NC1=N[C@](CF)(c2cc(Nc3ncc(F)c4cc(C#CC5CC5)cnc34)ccc2F)C[C@@H](C(F)(F)F)O1` [Example 54, (4S,6S)-4-(5-((3-(cyclopropylethynyl)-5-fluoro-1,7-naphthyridin-8-yl)amino)-2-fluorophenyl)-4-(fluoromethyl)-6-(trifluoromethyl)-5,6-dihydro-4H-1,3-oxazin-2-amine], in that order: 2.33 µM, 0.033 µM and > 133 µM.
For `NC1=N[C@](CF)(c2cc(Nc3nccc4cc(C#CC5CC5)cnc34)ccc2F)C[C@@H](C(F)(F)F)O1` [Example 55, (4S,6S)-4-(5-((3-(cyclopropylethynyl)-1,7-naphthyridin-8-yl)amino)-2-fluorophenyl)-4-(fluoromethyl)-6-(trifluoromethyl)-5,6-dihydro-4H-1,3-oxazin-2-amine] the same measures were 1.02 µM, 0.098 µM and > 400 µM.
As to `NC1=N[C@](CF)(c2cc(NC(=O)c3ccc(F)cn3)ccc2F)C[C@@H](C(F)(F)F)O1` [Example 57, N-(3-((4S,6S)-2-amino-4-(fluoromethyl)-6-(trifluoromethyl)-5,6-dihydro-4H-1,3-oxazin-4-yl)-4-fluorophenyl)-5-fluoropicolinamide], the IC50 in test [1] (setting [3]) was 0.106 µM; in test [2] (average IC50), 0.0725 µM; at Cathepsin D (Cat D) (average IC50) it was 4060 µM.
For `Cc1cc(Cl)cnc1C(=O)Nc1cnc(F)c([C@]2(C)C[C@@H](C(F)(F)F)OC(N)=N2)c1` [Example 61, N-(5-((4S,6S)-2-amino-4-methyl-6-(trifluoromethyl)-5,6-dihydro-4H-1,3-oxazin-4-yl)-6-fluoropyridin-3-yl)-5-chloro-3-methylpicolinamide] the same measures were 0.0391 µM, 0.0552 µM and > 400 µM.
Turning to `C[C@@]1(c2cc(NC(=O)c3ccc(F)cn3)cnc2F)C[C@@H](C(F)(F)F)OC(N)=N1` [Example 64, N-(5-((4S,6S)-2-amino-4-methyl-6-(trifluoromethyl)-5,6-dihydro-4H-1,3-oxazin-4-yl)-6-fluoropyridin-3-yl)-5-fluoropicolinamide], the IC50 in test [1] (setting [4]) is 0.038 µM; in test [2] (setting [5]), 0.206 µM; at Cathepsin D (Cat D) (setting [6]), > 400 µM.
For `C[C@@]1(c2cc(NC(=O)c3ccc(OCC(F)(F)F)cn3)cnc2F)C[C@@H](C(F)(F)F)OC(N)=N1` [Example 65, N-(5-((4S,6S)-2-amino-4-methyl-6-(trifluoromethyl)-5,6-dihydro-4H-1,3-oxazin-4-yl)-6-fluoropyridin-3-yl)-5-(2,2,2-trifluoroethoxy)picolinamide], in that order: 0.124 µM, 0.079 µM and 150 µM.
Regarding `C[C@@]1(c2cc(NC(=O)c3ncc(C#N)cc3Cl)cnc2F)C[C@@H](C(F)(F)F)OC(N)=N1` [Example 66, N-(5-((4S,6S)-2-amino-4-methyl-6-(trifluoromethyl)-5,6-dihydro-4H-1,3-oxazin-4-yl)-6-fluoropyridin-3-yl)-3-chloro-5-cyanopicolinamide], the IC50 in test [1] (HEK293, read-out: HEK cell assay IC50) was 0.0351 µM; in test [2] (average IC50), 0.0605 µM; on Cathepsin D (Cat D) (average IC50), > 400 µM.
On to `Cc1cc(C#N)cnc1C(=O)Nc1cnc(F)c([C@]2(C)C[C@@H](C(F)(F)F)OC(N)=N2)c1` [Example 67, N-(5-((4S,6S)-2-amino-4-methyl-6-(trifluoromethyl)-5,6-dihydro-4H-1,3-oxazin-4-yl)-6-fluoropyridin-3-yl)-5-cyano-3-methylpicolinamide], for which the figures for the IC50 (in test [1] (setting [3]); in test [2] (average IC50); at Cathepsin D (Cat D) (average IC50)) were 0.023 µM, 0.0348 µM and > 400 µM, respectively.
For `C[C@@]1(c2cc(NC(=O)c3ncc(Cl)cc3Cl)cnc2F)C[C@@H](C(F)(F)F)OC(N)=N1` [Example 68, N-(5-((4S,6S)-2-amino-4-methyl-6-(trifluoromethyl)-5,6-dihydro-4H-1,3-oxazin-4-yl)-6-fluoropyridin-3-yl)-3,5-dichloropicolinamide] the same measures were 0.111 µM, 0.0751 µM and > 400 µM.
As for `CC(C)n1cc(Cl)c(C(=O)Nc2cnc(F)c([C@]3(C)C[C@@H](C(F)(F)F)OC(N)=N3)c2)n1` [Example 71, N-(5-((4S,6S)-2-amino-4-methyl-6-(trifluoromethyl)-5,6-dihydro-4H-1,3-oxazin-4-yl)-6-fluoropyridin-3-yl)-4-chloro-1-isopropyl-1H-pyrazole-3-carboxamide], the IC50 was 5.14 µM in test [1] (setting [4]), 38.9 µM in test [2] (setting [5]) and > 400 µM at Cathepsin D (Cat D) (setting [6]).
As for `C[C@@]1(c2cc(NC(=O)c3nn(C(F)F)cc3Cl)cnc2F)C[C@@H](C(F)(F)F)OC(N)=N1` [Example 72, N-(5-((4S,6S)-2-amino-4-methyl-6-(trifluoromethyl)-5,6-dihydro-4H-1,3-oxazin-4-yl)-6-fluoropyridin-3-yl)-4-chloro-1-(difluoromethyl)-1H-pyrazole-3-carboxamide], the results for the IC50 (in test [1] (setting [4]); in test [2] (setting [5]); at Cathepsin D (Cat D) (setting [6])) were 0.031 µM, 0.024 µM and 844 µM, respectively.
Turning to `C[C@@]1(c2cc(Nc3ncnc4cc(Cl)cnc34)cnc2F)C[C@@H](C(F)(F)F)OC(N)=N1` [Example 74, (4S,6S)-4-(5-((7-chloropyrido[3,2-d]pyrimidin-4-yl)amino)-2-fluoropyridin-3-yl)-4-methyl-6-(trifluoromethyl)-5,6-dihydro-4H-1,3-oxazin-2-amine], the results for the IC50 (in test [1] (setting [3]); in test [2] (average IC50); on Cathepsin D (Cat D) (average IC50)) were 0.0376 µM, 0.088 µM and > 400 µM, respectively.
For `C[C@@]1(c2cc(Nc3ncnc4cc(C#N)cnc34)cnc2F)C[C@@H](C(F)(F)F)OC(N)=N1` [Example 75, 4-((5-((4S,6S)-2-amino-4-methyl-6-(trifluoromethyl)-5,6-dihydro-4H-1,3-oxazin-4-yl)-6-fluoropyridin-3-yl)amino)pyrido[3,2-d]pyrimidine-7-carbonitrile] the same measures were 0.0912 µM, 0.368 µM and > 400 µM.
On to `C[C@@]1(c2cc(Nc3nccc4cc(Cl)cnc34)cnc2F)C[C@@H](C(F)(F)F)OC(N)=N1` [Example 76, (4S,6S)-4-(5-((3-chloro-1,7-naphthyridin-8-yl)amino)-2-fluoropyridin-3-yl)-4-methyl-6-(trifluoromethyl)-5,6-dihydro-4H-1,3-oxazin-2-amine], for which the IC50 was 0.042 µM in test [1] (setting [3]), 0.0329 µM in test [2] (average IC50) and > 400 µM at Cathepsin D (Cat D) (average IC50).
For `C[C@@]1(c2cc(Nc3nccc4cc(C#N)cnc34)cnc2F)C[C@@H](C(F)(F)F)OC(N)=N1` [Example 77, 8-((5-((4S,6S)-2-amino-4-methyl-6-(trifluoromethyl)-5,6-dihydro-4H-1,3-oxazin-4-yl)-6-fluoropyridin-3-yl)amino)-1,7-naphthyridine-3-carbonitrile], the IC50 was 0.0248 µM in test [1] (setting [3]), 0.0956 µM in test [2] (average IC50) and > 400 µM at Cathepsin D (Cat D) (average IC50).
